Experimental data reported in paper PMC7403315, “Cyclic peptide FXII inhibitor provides safe anticoagulation in a thrombosis model and in artificial lungs” (Nature Communications, 2020).
Values joined by “and” are separate entries in the source; they are usually repeats but may differ in a detail not shown here. Identical values can stand only once. Like-named read-outs stand apart in the source and are kept apart here. Starred links: 1 amine or outer side, 2 acyl side, 3 side chain; linkers in the order of their positions; H or OH if unused. Positions of bridges follow the written chain, without caps; N, C: chain ends. Non-standard residues stand in square brackets, D forms with d. Residues, ends and D or L forms follow the SMILES beside them. TATA = O=C(CC[*:1])N1CN(C(=O)CC[*:2])CN(C(=O)CC[*:3])C1; Phe(4-F) = N[C@@H](Cc1ccc(F)cc1)C(=O)O; β3hR = N=C(N)NCCC[C@H](N)CC(=O)O

How the values were obtained:
[1] = target: T1, human β-FXIIa (Homo sapiens, UniProt P00748); assay: FXIIa protease inhibition assay with fluorogenic substrate Boc-Gln-Gly-Arg-AMC; type: biochemical
T1 construct: human β-FXIIa (Molecular Innovations cat #); purchased Molecular Innovations HFXIIAB; host or cells: human blood
T1 sequence (P00748 373-615 limits assumed, other chains not shown): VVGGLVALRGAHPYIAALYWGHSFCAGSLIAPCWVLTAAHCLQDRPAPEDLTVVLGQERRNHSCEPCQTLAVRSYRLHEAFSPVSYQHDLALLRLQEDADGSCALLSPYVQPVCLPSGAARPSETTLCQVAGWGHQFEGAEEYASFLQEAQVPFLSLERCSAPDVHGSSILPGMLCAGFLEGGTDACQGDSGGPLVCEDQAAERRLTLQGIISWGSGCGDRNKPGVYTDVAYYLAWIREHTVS
Experimental: (§1) In order to test the inhibitory activity of peptides without prior purification, we developed the following method. […] After solid-phase peptide synthesis, cleavage, and ether precipitation, the peptides were chemically cyclized and their Ki values were determined in a FXIIa activity assay using a fluorogenic substrate.
(§2) Protease inhibition assays
(§3) The inhibitory activity of peptides was determined by measuring the residual protease activity with a fluorogenic substrate. The assay was performed in buffer containing 10 mM Tris-Cl, pH […]
(§4) 1% (v/v) DMSO in a volume of 150 µl. FXIIa activity was measured with the fluorogenic substrate Boc-Gln-Gly-Arg-AMC (Bachem) at a final concentration of 50 µM. Mouse α-FXIIa (Molecular Innovations cat # MFXIIA) and human β-FXIIa (Molecular Innovations cat # HFXIIAB) were used at final concentrations of 0.4 nM. The reaction was pipetted as follows: 50 µl of bicyclic peptide in assay buffer were added to 50 µl of FXIIa in assay buffer and incubated for 10 minutes at 25°C before 50 µl of 150 µM fluorogenic substrate in assay buffer were added to measure the residual protease activity with an Infinite M200Pro fluorescence plate reader (excitation at 368 nm, emission at 467 nm; Tecan) for a period of 30 minutes with a read every minute at 25°C. The Tecan software i-control (version 1.1) was used for data analysis. Stock solutions of 1 mM bicyclic peptide were prepared by either dissolving the unpurified cyclization reaction with water or by dissolving purified and lyophilized peptide in water. The bicyclic peptides were serially diluted two-fold using assay buffer. Sigmoidal curves were fitted to the data using the following dose response equation (1), wherein x = peptide concentration, y = % protease activity, and p = Hill slope. IC50 values were derived from the fitted curve.
(§5) The inhibition constants (Ki) were calculated according to the equation of Cheng and Prusoff, Ki = IC50/(1+([S]0/Km), wherein IC50 is the functional strength of the inhibitor, [S]0 is the total substrate concentration, and Km is the Michaelis-Menten constant. […]
(§6) the substrate Boc-Gln-Gly-Arg-AMC. […]

[2] = target: T2, Mouse α-FXIIa (Mus musculus, UniProt Q80YC5); assay: as above; type: biochemical; details: purified peptide without coumarin label; read-out: Ki mouse FXIIa
T2 construct: Mouse α-FXIIa; purchased Molecular Innovations MFXIIA
T2 sequence (Q80YC5 355-597 limits assumed): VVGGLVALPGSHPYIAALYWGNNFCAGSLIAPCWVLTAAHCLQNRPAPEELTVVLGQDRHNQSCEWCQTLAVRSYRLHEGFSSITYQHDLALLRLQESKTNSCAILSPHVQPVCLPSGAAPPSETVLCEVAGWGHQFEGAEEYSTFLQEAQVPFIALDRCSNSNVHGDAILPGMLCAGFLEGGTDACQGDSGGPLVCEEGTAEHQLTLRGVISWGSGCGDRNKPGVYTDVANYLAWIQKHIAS
T2 sequence (Q80YC5 20-354 limits assumed): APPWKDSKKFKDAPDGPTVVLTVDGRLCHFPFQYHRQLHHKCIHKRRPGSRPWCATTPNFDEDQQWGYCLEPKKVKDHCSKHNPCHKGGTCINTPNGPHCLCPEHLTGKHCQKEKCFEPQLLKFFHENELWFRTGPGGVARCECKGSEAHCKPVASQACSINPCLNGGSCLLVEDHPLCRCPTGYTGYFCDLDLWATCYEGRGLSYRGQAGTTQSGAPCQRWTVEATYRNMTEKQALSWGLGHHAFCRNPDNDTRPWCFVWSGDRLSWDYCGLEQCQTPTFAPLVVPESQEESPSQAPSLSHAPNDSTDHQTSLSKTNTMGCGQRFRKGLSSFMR
Experimental: as §1, §2, §3, §4, §5, §6

[3] = purified peptide without coumarin label, read-out: Ki human FXIIa

CC(C)C[C@@H]1NC(=O)[C@H](CCC(N)=O)NC(=O)[C@H](Cc2c[nH]cn2)NC(=O)[C@@H]2CSCCC(=O)N3CN(CN(C3)C(=O)CCSC[C@H](NC(=O)[C@@H](CO)NC(=O)[C@H](N)CCCNC(=N)N)C(=O)N[C@@H](Cc3ccccc3)C(=O)N[C@@H](C)C(=O)N[C@@H](CC(C)C)C(=O)N3CCC[C@H]3C(=O)N2)C(=O)CCSC[C@@H](C(N)=O)NC(=O)[C@H](CCCNC(=N)N)NC1=O [FXII901] (HELM PEPTIDE1{[dR].[dS].C.F.A.L.P.C.H.Q.L.R.C.[am]}|CHEM1{[O=C(CC[*:1])N1CN(C(=O)CC[*:2])CN(C(=O)CC[*:3])C1]}$PEPTIDE1,CHEM1,3:R3-1:R1|PEPTIDE1,CHEM1,8:R3-1:R2|PEPTIDE1,CHEM1,13:R3-1:R3$$$V2.0)
Ki ([1]; negative control peptide, read-out: Ki FXIIa): 39000 ± 14000 nM

CC(C)C[C@@H]1NC(=O)[C@H](CCC(N)=O)NC(=O)[C@H](CCCNC(=N)N)NC(=O)[C@@H]2CSCCC(=O)N3CN(CN(C3)C(=O)CCSC[C@H](NC(=O)[C@@H](N)CCCNC(=N)N)C(=O)N[C@@H](Cc3ccc(F)cc3)C(=O)N[C@@H](CCCNC(=N)N)C(=O)N[C@@H](CC(C)C)C(=O)N3CCC[C@H]3C(=O)N2)C(=O)CCSC[C@@H](C(=O)N[C@@H](CCCNC(=N)N)C(N)=O)NC(=O)[C@H](CCCNC(=N)N)NC1=O [FXII800]
Residual activity of human FXIIa ([1]; inhibitor 0.12207 nM, 0.00012207 µM): 86.6295% and 91.1755% | remaining activity at 0.00012207 µM ([1]; inhibitor 0.12207 nM, read-out: Residual activity of human FXIIa): 94.2% | Residual activity of human FXIIa ([1]; inhibitor 0.244141 nM, 0.000244141 µM): 82.4999% and 82.653% | remaining activity at 0.000244141 µM ([1]; inhibitor 0.244141 nM, read-out: Residual activity of human FXIIa): 87% | Residual activity of human FXIIa ([1]; inhibitor 0.488281 nM, 0.000488281 µM): 69.0437% and 70.79% | remaining activity at 0.000488281 µM ([1]; inhibitor 0.488281 nM, read-out: Residual activity of human FXIIa): 70.3% | Residual activity of human FXIIa ([1]; inhibitor 1.95312 nM, 0.00195312 µM): 33.1082% and 35.3323% | remaining activity at 0.00195312 µM ([1]; inhibitor 1.95312 nM, read-out: Residual activity of human FXIIa): 31.8% | Residual activity of human FXIIa ([1]; inhibitor 3.90625 nM, 0.00390625 µM): 19.4631% and 21.6747% | remaining activity at 0.00390625 µM ([1]; inhibitor 3.90625 nM, read-out: Residual activity of human FXIIa): 16.9% | Residual activity of human FXIIa ([1]; inhibitor 7.8125 nM, 0.0078125 µM): 10.6116% and 10.9279% | remaining activity at 0.0078125 µM ([1]; inhibitor 7.8125 nM, read-out: Residual activity of human FXIIa): 9.32% | Residual activity of human FXIIa ([1]; inhibitor 15.625 nM, 0.015625 µM): 6.273% and 6.117% | remaining activity at 0.015625 µM ([1]; inhibitor 15.625 nM, read-out: Residual activity of human FXIIa): 6.19% | Residual activity of human FXIIa ([1]; inhibitor 31.25 nM, 0.03125 µM): 3.754% and 3.106% | remaining activity at 0.03125 µM ([1]; inhibitor 31.25 nM, read-out: Residual activity of human FXIIa): 2.96% | Residual activity of human FXIIa ([1]; inhibitor 62.5 nM, 0.0625 µM): 2.455% and 1.836% | remaining activity at 0.0625 µM ([1]; inhibitor 62.5 nM, read-out: Residual activity of human FXIIa): 1.51% | Residual activity of human FXIIa ([1]; inhibitor 125 nM, 0.125 µM): 1.461% and 1.1009% | remaining activity at 0.125 µM ([1]; inhibitor 125 nM, read-out: Residual activity of human FXIIa): 1.19% | Residual activity of human FXIIa ([1]; inhibitor 0.976562 / 0.976563 nM, 0.000976563 µM): 50.5477% and 54.5303% | remaining activity at 0.000976563 µM ([1]; inhibitor 0.976562 / 0.976563 nM, read-out: Residual activity of human FXIIa): 50.5% | Ki [1, 3]: 0.84 ± 0.03 nM

CC(C)C[C@@H]1NC(=O)[C@H](CCC(N)=O)NC(=O)[C@H](CCCNC(=N)N)NC(=O)[C@@H]2CSCCC(=O)N3CN(CN(C3)C(=O)CCSC[C@H](NC(=O)[C@@H](CO)NC(=O)[C@H](N)CCCNC(=N)N)C(=O)N[C@@H](Cc3ccc(F)cc3)C(=O)N[C@@H](CCCNC(=N)N)C(=O)N[C@@H](CC(C)C)C(=O)N3CCC[C@H]3C(=O)N2)C(=O)CCSC[C@@H](C(=O)N[C@@H](CCCNC(=N)N)C(N)=O)NC(=O)C[C@H](CCCNC(=N)N)NC1=O [Arg8His reverted] (H-[dR][dS]C[Phe(4-F)]RLPCRQL[β3hR]CR-NH2; linker 3-8-13 via TATA)
Ki [1, 3]: 0.31 ± 0.02 nM | Ki [2]: 0.91 ± 0.04 nM

CC(C)C[C@@H]1NC(=O)[C@H](CCC(N)=O)NC(=O)[C@H](Cc2c[nH]cn2)NC(=O)[C@@H]2CSCCC(=O)N3CN(CN(C3)C(=O)CCSC[C@H](NC(=O)[C@@H](CO)NC(=O)[C@H](N)CCCNC(=N)N)C(=O)N[C@@H](Cc3ccc(F)cc3)C(=O)N[C@@H](CCCNC(=N)N)C(=O)N[C@@H](CC(C)C)C(=O)N3CCC[C@H]3C(=O)N2)C(=O)CCSC[C@@H](C(=O)N[C@@H](CCCNC(=N)N)C(N)=O)NC(=O)C[C@H](CCCNC(=N)N)NC1=O [FXII900 (with C-term Arg)] (H-[dR][dS]C[Phe(4-F)]RLPCHQL[β3hR]CR-NH2; linker 3-8-13 via TATA)
Ki [1, 3]: 0.34 ± 0.03 nM | Ki [2]: 0.5 ± 0.15 nM

CC(C)C[C@@H]1NC(=O)[C@H](CCC(N)=O)NC(=O)[C@H](CCCNC(=N)N)NC(=O)[C@@H]2CSCCC(=O)N3CN(CN(C3)C(=O)CCSC[C@H](NC(=O)[C@@H](N)CCCNC(=N)N)C(=O)N[C@@H](Cc3ccccc3)C(=O)N[C@@H](CCCNC(=N)N)C(=O)N[C@@H](CC(C)C)C(=O)N3CCC[C@H]3C(=O)N2)C(=O)CCSC[C@@H](C(=O)N[C@@H](CCCNC(=N)N)C(N)=O)NC(=O)C[C@H](CCCNC(=N)N)NC1=O [FXII700]
Residual activity of human FXIIa ([1]; inhibitor 0.0976562 nM, 97.66 pM): 91.4189% | remaining activity at 97.66 pM ([1]; inhibitor 0.0976562 nM, read-out: Residual activity of human FXIIa): 93.2% | Residual activity of human FXIIa ([1]; inhibitor 0.195312 nM, 0.000195312 µM): 81.1824% | remaining activity at 0.000195312 µM ([1]; inhibitor 0.195312 nM, read-out: Residual activity of human FXIIa): 90.3% | Residual activity of human FXIIa ([1]; inhibitor 0.390625 nM, 0.000390625 µM): 72.286% | remaining activity at 0.000390625 µM ([1]; inhibitor 0.390625 nM, read-out: Residual activity of human FXIIa): 82.1% | Residual activity of human FXIIa ([1]; inhibitor 0.78125 nM, 0.00078125 µM): 58.8964% | remaining activity at 0.00078125 µM ([1]; inhibitor 0.78125 nM, read-out: Residual activity of human FXIIa): 69.4% | Residual activity of human FXIIa ([1]; inhibitor 1.5625 nM, 0.0015625 µM): 43.9302% | remaining activity at 0.0015625 µM ([1]; inhibitor 1.5625 nM, read-out: Residual activity of human FXIIa): 53.9% | Residual activity of human FXIIa ([1]; inhibitor 3.125 nM, 0.003125 µM): 29.5158% and 36.4925% | remaining activity at 0.003125 µM ([1]; inhibitor 3.125 nM, read-out: Residual activity of human FXIIa): 34.3% | Residual activity of human FXIIa ([1]; inhibitor 6.25 nM, 0.00625 µM): 18.0743% and 21.4703% | remaining activity at 0.00625 µM ([1]; inhibitor 6.25 nM, read-out: Residual activity of human FXIIa): 20.1% | Residual activity of human FXIIa ([1]; inhibitor 12.5 nM, 0.0125 µM): 10.9718% and 11.488% | remaining activity at 0.0125 µM ([1]; inhibitor 12.5 nM, read-out: Residual activity of human FXIIa): 10.6% | remaining activity at […] ([1]; inhibitor 25 nM, read-out: Residual activity of human FXIIa): 4.82% | Residual activity of human FXIIa ([1]; inhibitor 50 nM, 0.05 µM): 4.39% and 3.29% | remaining activity at 0.05 µM ([1]; inhibitor 50 nM, read-out: Residual activity of human FXIIa): 2.6% | Residual activity of human FXIIa ([1]; inhibitor 100 nM, 0.1 µM): 1.025% and 3.134% and 1.703% | remaining activity at 0.2 µM ([1]; inhibitor 200 nM, read-out: Residual activity of human FXIIa): 0.731% | remaining activity at 0.4 µM ([1]; inhibitor 400 nM, read-out: Residual activity of human FXIIa): 0.3% | Ki [1, 3]: 1.5 ± 0.1 nM
